Our source for the EC50 values is US12187706B2, “NLRP3 modulators” (INNATE TUMOR IMMUNITY, INC., priority 2019, dated 2025).

T1 sequence (Q96P20 whole entry): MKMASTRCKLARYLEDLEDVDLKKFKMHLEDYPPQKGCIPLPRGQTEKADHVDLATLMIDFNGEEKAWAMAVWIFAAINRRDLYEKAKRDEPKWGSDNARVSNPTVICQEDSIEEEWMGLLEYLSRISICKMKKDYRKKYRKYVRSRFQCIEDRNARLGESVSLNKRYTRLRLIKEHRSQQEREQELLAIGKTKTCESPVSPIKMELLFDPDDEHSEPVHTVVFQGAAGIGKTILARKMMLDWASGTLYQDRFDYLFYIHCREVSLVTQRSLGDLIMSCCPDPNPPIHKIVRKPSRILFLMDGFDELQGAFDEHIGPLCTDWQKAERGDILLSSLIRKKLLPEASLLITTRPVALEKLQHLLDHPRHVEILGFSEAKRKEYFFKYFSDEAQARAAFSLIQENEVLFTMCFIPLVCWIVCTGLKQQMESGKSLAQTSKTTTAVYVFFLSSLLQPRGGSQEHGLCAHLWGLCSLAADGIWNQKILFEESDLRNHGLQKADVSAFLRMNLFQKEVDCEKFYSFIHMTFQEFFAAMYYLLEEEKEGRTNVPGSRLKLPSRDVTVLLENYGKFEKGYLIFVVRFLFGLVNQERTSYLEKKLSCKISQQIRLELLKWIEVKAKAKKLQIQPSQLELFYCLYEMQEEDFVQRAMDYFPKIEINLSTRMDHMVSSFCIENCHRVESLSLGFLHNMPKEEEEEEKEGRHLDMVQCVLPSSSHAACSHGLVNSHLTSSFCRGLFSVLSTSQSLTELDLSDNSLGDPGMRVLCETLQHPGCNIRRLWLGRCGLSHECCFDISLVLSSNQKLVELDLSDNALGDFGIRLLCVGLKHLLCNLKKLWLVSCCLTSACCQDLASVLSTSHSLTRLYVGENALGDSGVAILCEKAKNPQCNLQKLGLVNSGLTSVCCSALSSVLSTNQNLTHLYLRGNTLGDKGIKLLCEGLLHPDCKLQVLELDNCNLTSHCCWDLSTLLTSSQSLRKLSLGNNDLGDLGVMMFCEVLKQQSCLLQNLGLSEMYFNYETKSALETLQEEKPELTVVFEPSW

The experiment addresses T1, NLRP3 (Homo sapiens, UniProt Q96P20).
T1 construct: host or cells: PMA-differentiated THP-1 cells
The experiment in a line: Measurement of IL-1β production in PMA-differentiated THP-1 cells (NLRP3 hIL1B). It is filed as cell-based. The method, then:
Measurement of IL-1β Production in PMA-Differentiated THP-1 Cells
THP-1 cells were purchased from the American Type Culture Collection and sub-cultured according to instructions from the supplier. Prior to experiments, cells were cultured in RPMI 1640 containing 10% heat inactivated FBS, penicillin (100 units/ml) and streptomycin (100 μg/ml), and maintained in log phase prior to experimental setup. Prior to the experiment THP-1 were treated with PMA (Phorbol 12-myristate 13-acetate) (10 μg/ml) for 24 hours. The day of the experiment the media was removed and attaching cells were treated with trypsin for 2 minutes, cells were then collected, washed with PBS (phosphate buffer saline), spin down, resuspended in 2% heat inactivated FBS with RPMI at a concentration of 1×10^6 cells/ml, and 100 μl was plated in a 96 well plate. Compounds were dissolved in dimethyl sulfoxide (DMSO) and added to the culture medium to achieve desired concentration (e.g. 100, 30, 10, 3, 1, 0.3 or 0.1 μM). Cells were incubated with compounds for 4 hours. Cell free supernatant was collected and the production of IL-1β was evaluated by ELISA. A vehicle only control was run concurrently with each experiment. Final DMSO concentration was 1%.
Measurement of IL-1β Production in PMA-Differentiated THP-1 Cells (Alternative Procedure)
THP-1 cells were purchased from the American Type Culture Collection and sub-cultured according to instructions from the supplier. Prior to experiments, cells were cultured in RPMI 1640 containing 10% heat inactivated FBS, penicillin (100 units/ml), streptomycin (100 μg/ml), HEPES (10 mM) and sodium pyruvate (1 mM) and maintained in log phase prior to experimental setup. Prior to the experiment, THP-1 cells were treated with PMA (Phorbol 12-myristate 13-acetate) (20 μg/ml) overnight. The day of the experiment, the media was removed and attached cells were treated with trypsin for 2 minutes, cells were then collected, washed with PBS (phosphate buffer saline), pelleted by centrifugation and resuspended in 2% heat inactivated FBS with RPMI at a concentration of 50,000 cells/well in a 384 well plate. Cell free supernatant was collected and the production of IL-1β was evaluated by ELISA. Compounds were dissolved in dimethyl sulfoxide (DMSO) and added to the culture medium to achieve desired concentration (e.g. 100, 30, 10, 3, 1, 0.3 or 0.1 μM). Cells were incubated with compounds for 2 hours. A vehicle only control was run concurrently with each experiment. Final DMSO concentration was 1%.
Measurement of IL-1β Production—hTRF Protocol (Second Alternative Procedure)
Serial dilutions of compounds in DMSO were added to low volume 384 well plates at 100 nl/well using an ECHO 550 acoustic dispenser (Labcyte) to achieve final starting concentration of 10 μM in assay.
THP-1 cells in RPMI (Gibco, 11875) media with 10% FBS at a density of 1×10^6 cell/ml in a T175 flask were treated with a final concentration of phorbol 12-myristate 13-acetate (PMA) (Sigma, P1585) of 50 ng/ml overnight at 37° C. at 5% CO2 for differentiation. Cells were harvested the next day after rinsing well with dPBS using 0.5% trypsin. A cell solution was prepared of 1×10^6 cells/ml for 50,000 cells in 50 μl/well in RPMI media with 2% FBS. Cells were plated using a multichannel pipette onto the compound dilutions in Greiner, 384 well, black clear bottom tissue culture treated plates (781090). The plates were incubated in 37° C. incubator at 5% CO2 for 2 hours.
After the 2 hour incubation, the cell plates were spun in the centrifuge for 5 minutes at 1200 rpm. Using the Felix (CyBio), 8 μl of the supernatant was transferred to 384 well, low volume, white proxy plates. (Perkin Elmer, 6008230). A human IL1beta hTRF kit was used to analyze the supernatant (CISBIO, 62HIL1BPEG). The kit instructions were followed for preparing the IL1Beta standard curve and then the antibodies from the kit were diluted 1:40 rather than 1:20 as kit instructed.
For the molecule `CCOCCNc1nc(N)nc2cc(-c3ccn[nH]3)ccc12` [Example 103], the EC50 worked out at 370 nM.

Take `Nc1nc(NCC(O)CC(F)(F)F)c2ccc(-c3ccn[nH]3)cc2n1` (stereo not drawn) [Example 41]: the EC50 was 760 nM.

Consider `Nc1nc(NCCO)c2c(F)cc(-c3cc[nH]n3)cc2n1` [Example 126], for which the midpoint of the response, the EC50, lay at 760 nM.

On to `CC(O)(CO)CNc1nc(N)nc2cc(-c3ccn[nH]3)ccc12` (racemic) [Example 11, rac-3-((2-amino-7-(1H-pyrazol-5-yl)quinazolin-4-yl)amino)-2-methylpropane-1,2-diol], for which the EC50 worked out at 1140 nM.

As for `Cn1ccnc1C(O)CNc1nc(N)nc2cc(-c3ccn[nH]3)ccc12` (single isomer, unassigned) [Example 150, 2-((2-amino-7-(1H-pyrazol-5-yl)quinazolin-4-yl)amino)-1-(1-methyl-1H-imidazol-2-yl)ethan-1-ol], the half-maximal effective concentration (EC50) was 2450 nM.

For `Nc1nc(NC2CC2)c2ccc(-c3cc[nH]n3)cc2n1` [Example 193], the EC50 was determined as 100 nM.

`Nc1nc(NCCCO)c2c(F)cc(-c3ccn[nH]3)cc2n1` [Example 15, 3-((2-amino-5-fluoro-7-(1H-pyrazol-3-yl)quinazolin-4-yl)amino)propan-1-ol] had an EC50 of 240 nM.

With `Nc1nc(N[C@H]2C[C@@H](O)C2)c2ccc(-c3ccn[nH]3)cc2n1` [Example 158], the EC50 is 1590 nM.

`Nc1nc(NOCCO)c2ccc(-c3ccn[nH]3)cc2n1` [Example 186]: it took 3000 nM to reach a half-maximal effect (EC50).

With `Nc1nc(NCc2cncnc2)c2c(F)cc(-c3cc[nH]n3)cc2n1` [Example 128], the concentration giving a half-maximal response (EC50) turned out to be 830 nM.

For `Nc1nc(NCCc2ccccn2)c2ccc(-c3cc[nH]n3)cc2n1` [Example 119], the EC50 amounted to 490 nM.

In turn, `Nc1nc(NCc2ncccc2F)c2ccc(-c3ccn[nH]3)cc2n1` [Example 170] displayed an EC50 of 200 nM.

In turn, `Nc1nc(NCC2(O)CC2)c2ccc(-c3cc[nH]n3)cc2n1` [Example 197] displayed an EC50 of 310 nM.

In the case of `CO[C@H]1C[C@H](Nc2nc(N)nc3cc(-c4ccn[nH]4)ccc23)C1` [Example 173], the midpoint of the response, the EC50, lay at 140 nM.

Take `COc1cc(-c2cc[nH]n2)cc2nc(N)nc(NCCc3ccccn3)c12` [Example 134]: the EC50 was found to be 1740 nM.

Regarding `Nc1nc(N[C@H]2CCC[C@@H](O)C2)c2c(F)cc(-c3cc[nH]n3)cc2n1` (racemic) [Example 16, cis-3-((2-amino-5-fluoro-7-(1H-pyrazol-3-yl)quinazolin-4-yl)amino)cyclohexan-1-ol], the EC50 came to 780 nM.

Molecule `Nc1nc(N[C@H]2CCCC[C@H]2CO)c2ccc(-c3ccn[nH]3)cc2n1` (racemic) [Example 57] showed an EC50 of 800 nM.

Turning to `Nc1nc(NCCCO)c2c(-c3cc[nH]n3)cc(-c3cc[nH]n3)cc2n1` [Example 19, 3-((2-amino-5,7-di(1H-pyrazol-3-yl)quinazolin-4-yl)amino)propan-1-ol], the response was half-maximal at 9860 nM (EC50).

The molecule `CN1CC[C@H](Nc2nc(N)nc3cc(-c4ccn[nH]4)ccc23)C1` [Example 139] displayed an EC50 of 1770 nM.

In the case of `CN(C)CC(O)CNc1nc(N)nc2cc(-c3ccn[nH]3)ccc12` (stereo not drawn) [Example 40], the EC50 stood at 2240 nM.

Take `COc1cccc(CNc2nc(N)nc3cc(-c4ccn[nH]4)ccc23)n1` [Example 160]: it took 650 nM to reach a half-maximal effect (EC50).

Consider `Nc1nc(N[C@H](CO)Cc2c[nH]cn2)c2ccc(-c3ccn[nH]3)cc2n1` [Example 54], for which the EC50 was 4010 nM.

As to `CC(C)(O)CCNc1nc(N)nc2cc(-c3ccn[nH]3)ccc12` [Example 89], the response was half-maximal at 460 nM (EC50).

In the case of `Nc1nc(NCC2(CO)CC2)c2ccc(-c3ccn[nH]3)cc2n1` [Example 204], the EC50 turned out to be 180 nM.

Molecule `Nc1nc(N[C@H]2CC[C@@H](CO)C2)c2ccc(-c3ccn[nH]3)cc2n1` [Example 63] showed an EC50 of 1750 nM.

Take `Cc1noc(C)c1CNc1nc(N)nc2cc(-c3ccn[nH]3)ccc12` [Example 81]: the EC50 came to 1200 nM.

The molecule `Nc1nc(NCC2(O)CCC2)c2ccc(-c3ccn[nH]3)cc2n1` [Example 38] returned an EC50 of 320 nM.

As for `Nc1nc(NC(CO)c2nccs2)c2ccc(-c3ccn[nH]3)cc2n1` (stereo not drawn) [Example 35], the midpoint of the response, the EC50, lay at 5530 nM.

`N#C[C@H]1CC[C@H](Nc2nc(N)nc3cc(-c4ccn[nH]4)ccc23)C1` (single isomer, unassigned) [Example 185, (trans)-3-((2-amino-7-(1H-pyrazol-5-yl)quinazolin-4-yl)amino)cyclopentane-1-carbonitrile] showed an EC50 of 170 nM.

Consider `Cn1cncc1CNc1nc(N)nc2cc(-c3ccn[nH]3)ccc12` [Example 75], for which the EC50 came out at 5520 nM.

In turn, `COC(CO)CNc1nc(N)nc2cc(-c3ccn[nH]3)ccc12` (single isomer, unassigned) [Example 202, 3-((2-amino-7-(1H-pyrazol-5-yl)quinazolin-4-yl)amino)-2-methoxypropan-1-ol] gave an EC50 of 880 nM.

For the molecule `N#C[C@H]1CC[C@H](Nc2nc(N)nc3cc(-c4ccn[nH]4)ccc23)CC1` [Example 182], a half-maximal effect (EC50) was put at 130 nM.

Regarding `Nc1nc(NC2CCC2)c2ccc(-c3ccn[nH]3)cc2n1` [Example 177], the EC50 was 160 nM.

Molecule `Nc1nc(N[C@@H]2COC[C@H]2O)c2ccc(-c3ccn[nH]3)cc2n1` (racemic) [Example 25, trans-4-((2-amino-7-(1H-pyrazol-5-yl)quinazolin-4-yl)amino)tetrahydrofuran-3-ol] registered an EC50 of 720 nM.

In turn, `COc1cc(-c2cc[nH]n2)cc2nc(N)nc(NCc3cc[nH]n3)c12` [Example 132] displayed an EC50 of 2180 nM.

`Nc1nc(N[C@H]2CCC[C@@H](O)C2)c2ccc(-c3ccn[nH]3)cc2n1` (single isomer, unassigned) [Example 178, (cis)-3-((2-amino-7-(1H-pyrazol-5-yl)quinazolin-4-yl)amino)cyclohexan-1-ol] registered an EC50 of 660 nM.

Consider `CC(C)(CO)CNc1nc(N)nc2cc(-c3ccn[nH]3)ccc12` [Example 73], for which a half-maximal effect (EC50) was put at 230 nM.

Consider `Nc1nc(N[C@@H]2C[C@H]2c2cccnc2)c2ccc(-c3ccn[nH]3)cc2n1` (single isomer, unassigned) [Example 162, 7-(1H-pyrazol-5-yl)-N4-((trans)-2-(pyridin-3-yl)cyclopropyl)quinazoline-2,4-diamine], for which the EC50 is 240 nM.

`Cc1cc(-c2cc[nH]n2)cc2nc(N)nc(NCc3cc[nH]n3)c12` [Example 137] yielded an EC50 of 170 nM.

Consider `Nc1nc(N[C@@H]2CC[C@@H](O)C2)c2ccc(-c3ccn[nH]3)cc2n1` [Example 46], for which the EC50 was determined as 210 nM.

Consider `Cc1cc(-c2cc[nH]n2)cc2nc(N)nc(NCc3cncnc3)c12` [Example 136], for which the midpoint of the response, the EC50, lay at 1060 nM.

`Cc1cnc(CNc2nc(N)nc3cc(-c4ccn[nH]4)ccc23)cn1` [Example 80] registered an EC50 of 710 nM.

In turn, `Nc1nc(NCc2ncccn2)c2ccc(-c3ccn[nH]3)cc2n1` [Example 51] returned an EC50 of 320 nM.

As for `Nc1nc(NCc2ncco2)c2ccc(-c3ccn[nH]3)cc2n1` [Example 61], the midpoint of the response, the EC50, lay at 220 nM.

In turn, `Nc1nc(NC[C@H](O)CO)c2ccc(-c3ccn[nH]3)cc2n1` [Example 70] came in with an EC50 of 800 nM.

`Nc1nc(NCc2cn[nH]c2)c2ccc(-c3ccn[nH]3)cc2n1` [Example 147]: a half-maximal effect (EC50) was put at 260 nM.

`Nc1nc(NCC(F)(F)CO)c2ccc(-c3ccn[nH]3)cc2n1` [Example 88]: the EC50 is 220 nM.

Take `CC(CCO)Nc1nc(N)nc2cc(-c3ccn[nH]3)ccc12` (single isomer, unassigned) [Example 200, 3-((2-amino-7-(1H-pyrazol-5-yl)quinazolin-4-yl)amino)butan-1-ol]: the EC50 was found to be 860 nM.
